Converted amounts (≈) assume the structure as drawn. Where a name gives a salt, the structure may show the parent alone.
Key:
human lung (A549) = assay: In vitro microdilution inhibition, human lung A549; type: cell-based; conditions: A549, 72 hours, 50% of cells killed
Source text: (§1) As shown in Table III the compounds of the present invention exert an in vitro antitumor effect. The following cells lines were employed: human lung (A549); resistant human lung with low topo II activity (A549-VP); murine melanoma (B16); human colon tumor (HCT116); human colon tumor with elevated p170 levels (HCTVM); human colon tumor with low topo II activity (HCTVP); and another human colon carcinoma cell line (Moser). In the Table, the designation "NT" indicates the compound was not tested against the specified cell line. The cell lines were maintained in continuous culture at 37°, 5% CO2 and high humidity. Cells were harvested in log phase growth and suspended at concentration of 25,000 cells/mL. A […] aliquot was then added to each well (i.e., 3,750 cells per well) of a 96-well flat bottom plate and the cells were allowed to attach over a 24 hour period. After this 24 hour incubation, a 50 μL sample of the specified compound was added to the first (top) well of each column, and the remaining wells of each column serially diluted, 1:4, and allowed to incubate for 72 hours at 37° C., 5% CO2 and high humidity. Following incubation, 50 μL of freshly prepared stain solution was added to each well. After a 3 hour incubation at room temperature, absorbance was read at 450 nm on a microplate reader to determine the compound concentration at which 50% of the cells were killed, such concentration referred to as the "IC50 ".

[1] = tested on: human colon tumor (HCT116); assay: In vitro microdilution inhibition, HCT116; type: cell-based; conditions: HCT-116, 72 hours, 50% of cells killed
Source text: as §1

murine melanoma (B16) = assay: In vitro microdilution inhibition, B16; type: cell-based; conditions: Mus musculus; B16, 72 hours, 50% of cells killed
Source text: as §1

[2] = tested on: human colon tumor with elevated p170 levels (HCTVM); assay: In vitro microdilution inhibition, HCTVM; type: cell-based; conditions: 72 hours, 50% of cells killed
Source text: as §1

[3] = tested on: human colon tumor with low topo II activity (HCTVP); assay: In vitro microdilution inhibition, HCTVP; type: cell-based; conditions: 72 hours, 50% of cells killed
Source text: as §1

[4] = tested on: resistant human lung with low topo II activity (A549-VP); assay: In vitro microdilution inhibition, resistant human lung A549-VP; type: cell-based; conditions: A549VP, 72 hours, 50% of cells killed
Source text: as §1

p388 murine leukemia = assay: In vivo activity against p388 murine leukemia in an acute mouse model; conditions: for AWC (average weight change per mouse): before treatment to day five
Procedure: CDF1 mice of both sexes weighing between 16 and 25 gm. were used, with a 2 gm. weight range and same sex and source used per experiment. BDF1 mice also were used with the same weight, sex and source parameters. Control and test animals were injected interperitoneally with suspension of 1×10^6 p388 murine leukemia cells (0.5 mL dose) on day 0. Groups of 4-6 mice were used for each dosage amount they were treated with 5 doses on day one. A group of ten saline treated control mice was included in each set of experiments. A 30 day protocol was employed with mean survival time in days being determined for each group of mice with the number of survivors at the end of the 30 day period being noted. The mice were weighed before treatment and again on day five. The values listed for average weight change (AWC) is the average weight change per mouse at the specified dose. The change in weight was taken as a measure of drug toxicity. A loss in weight of up to 2 grams is not considered excessive. The results were determined in terms of % T/C which is the ratio of the mean survival time of the treated group to the mean survival time of the saline treated group times 100.

[5] = tested on: human colon carcinoma cell line (Moser); assay: In vitro microdilution inhibition, Moser; type: cell-based; conditions: 72 hours, 50% of cells killed
Source text: as §1

[6] = Mus musculus, P388, 720 h, CDF1 (female only), 4 mg/kg, read-out: % T/C (mean survival time treated/control)
[7] = Mus musculus, P388, 720 h, CDF1 (female only), 12 mg/kg, read-out: % T/C (mean survival time treated/control)
[8] = Mus musculus, P388, 720 h, CDF1 (female only), 36 mg/kg, read-out: % T/C (mean survival time treated/control)
[9] = Mus musculus, P388, 720 h, CDF1 (mixed sex), 5 mg/kg, read-out: % T/C (mean survival time treated/control)
[10] = Mus musculus, P388, 720 h, CDF1 (mixed sex), 15 mg/kg, read-out: % T/C (mean survival time treated/control)

Row | Compound | IC50 (human lung (A549)) | IC50 [1] | IC50 (murine melanoma (B16)) | IC50 [2] | IC50 [3] | IC50 [4] | AWC (average weight change per mouse) (p388 murine leukemia; CDF1 (female only), 4 mg/kg) | AWC (average weight change per mouse) (p388 murine leukemia; CDF1 (female only), 12 mg/kg) | AWC (average weight change per mouse) (p388 murine leukemia; CDF1 (female only), 36 mg/kg) | response vs control in vivo at 4 mg/kg (p388 murine leukemia; [6]) | response vs control in vivo at 12 mg/kg (p388 murine leukemia; [7]) | response vs control in vivo at 36 mg/kg (p388 murine leukemia; [8]) | AWC (average weight change per mouse) (p388 murine leukemia; CDF1 (mixed sex), 5 mg/kg) | AWC (average weight change per mouse) (p388 murine leukemia; CDF1 (mixed sex), 15 mg/kg) | % T/C (mean survival time treated/control) (p388 murine leukemia; CDF1 (mixed sex), 45 mg/kg) | response vs control in vivo at 5 mg/kg (p388 murine leukemia; [9]) | response vs control in vivo at 15 mg/kg (p388 murine leukemia; [10]) | IC50 [5] | AWC (average weight change per mouse) (p388 murine leukemia; CDF1 (mixed sex), 45 mg/kg) | response vs control in vivo at 45 mg/kg (p388 murine leukemia; Mus musculus, P388, 720 h, CDF1 (mixed sex), 45 mg/kg, read-out: % T/C (mean survival time treated/control))
1 | COCOc1cccc2c1C1(CC2)C(=O)c2c(O)c3c(c(O)c2C1=O)C(=O)C(N)=CC3=O (stereo not shown) [Example 14, 6-amino-2',3'-dihydro-7'-(methoxymethoxy)-1H-indene-1'-spiro-2-[4,9-dihydroxy-2H-benz[f]-indene-1,3,5,8-tetrone]] | < 0.03 µg/mL | 0.03 µg/mL (≈ 0.0689 µM) | 0.03 µg/mL (≈ 0.0689 µM) | 0.03 µg/mL (≈ 0.0689 µM) | 0.03 µg/mL (≈ 0.0689 µM) | 0.03 µg/mL (≈ 0.0689 µM) | – | – | – | – | – | – | – | – | – | – | – | – | – | –
2 | CCCCCc1cc2cc3c(c(O)c2c(=O)[nH]1)C1(CC3)C(=O)c2c(O)c3c(c(O)c2C1=O)C(=O)C(NCCN(C)C)=CC3=O (stereo not shown) [Example 25, hydrochloride] | 0.14 µg/mL | 0.27 µg/mL | 0.14 µg/mL | 0.22 µg/mL | 0.13 µg/mL | 0.16 µg/mL | 0.9 | -0.7 | -1.6 | 125% | 105% | 120% | – | – | – | – | – | – | – | –
3 | COCOc1cccc2c1C1(CC2)C(=O)c2c(O)c3c(c(O)c2C1=O)C(=O)C(OC)=CC3=O (stereo not shown) [Example 5, 2',3'-Dihydro-7'-(methoxymethoxy)-6-methoxy-1H-indene-1'-spiro-2-[4,9-dihydroxy-2H-benz[f]indene-1,3,5,8-tetrone]] | 0.4 µg/mL (≈ 0.888 µM) | 0.09 µg/mL (≈ 0.2 µM) | 0.7 µg/mL (≈ 1.55 µM) | 0.2 µg/mL (≈ 0.444 µM) | 0.2 µg/mL (≈ 0.444 µM) | 1.1 µg/mL (≈ 2.44 µM) | – | – | – | – | – | – | – | – | – | – | – | – | – | –
4 | COCOc1cccc2c1C1(CC2)C(=O)c2c(O)c3c(c(O)c2C1=O)C(=O)C=CC3=O [Example 2, 2',3'-Dihydro-7'-(methoxymethoxy)-1H-indene-1'-spiro-2-[4,9-dihydroxy-2H-benz[f]indene-1,3,5,8-tetrone]] | 0.36 µg/mL (≈ 0.856 µM) | 0.25 µg/mL (≈ 0.595 µM) | 0.14 µg/mL (≈ 0.333 µM) | – | 0.29 µg/mL (≈ 0.69 µM) | – | – | – | – | – | – | – | -0.1 | -1.3 | Toxic | 105% | 110% | 1.07 µg/mL (≈ 2.55 µM) | – | –
5 | CN(C)CCNC1=CC(=O)c2c(O)c3c(c(O)c2C1=O)C(=O)C1(CCc2cccc(O)c21)C3=O (stereo not shown) [Example 24, hydrochloride] | 0.5 µg/mL | 0.2 µg/mL | 0.4 µg/mL | 0.7 µg/mL | 1.1 µg/mL | 1.4 µg/mL | – | – | – | – | – | – | -0.3 | -0.3 | – | 110% | 110% | – | -0.9 | 120%
6 | CCCCCc1cc2cc3c(c(O)c2c(=O)[nH]1)C1(CC3)C(=O)c2c(O)c3c(c(O)c2C1=O)C(=O)C(NCC)=CC3=O (stereo not shown) [Example 23, 2',6'7'-trihydro-4,9,9'-trihydroxy-3'-(n-pentyl)-6-ethylamino-spiro[2H-benz[f]-indene-2,8'-[8H]cyclopent[g]-isoquinoline]-1,1',3,5,8-pentone] | 0.14 µg/mL (≈ 0.252 µM) | 0.28 µg/mL (≈ 0.503 µM) | 0.39 µg/mL (≈ 0.701 µM) | 0.22 µg/mL (≈ 0.395 µM) | 0.1 µg/mL (≈ 0.18 µM) | 0.1 µg/mL (≈ 0.18 µM) | 1.8 | 1.7 | 0.7 | 100% | 95% | 100% | – | – | – | – | – | – | – | –

Source: US5166208A, “Fredericamycin A derivatives” (Boston College, priority 1991, dated 1992)
